Reference: patent US7629368B2, “Nitroderivatives as drugs for diseases having an inflammatory basis” (Nicox S.A., priority 2000, dated 2009)

Assays:
[1] = system: Human adenocarcinoma (HT29) cells; assay: Antiproliferative activity in cancerous cells, cellular growth by haemocytometer; assay type: cell-based; conditions: 96 hours, controls = 100, read-out: Proliferation %
Protocol: Determination of the Antiproliferative Activity of the Compounds of the Invention in Cancerous Cells.
Human adenocarcinoma (HT29) cells taken from colon affected by cancerous process were transferred into plates with 24 wells containing a cellular culture medium formed by 10% of foetal bovine serum, penicillin (50 U/ml), streptomycin ([…]) and PEG 400 (polyethylenglycol). After 24 hours a part of the plates is inoculated with the tested compounds dissolved in the carrier (PEG 400). 96 hours after the inoculation of the compounds the cellular growth was measured by haemocytometer. The results, reported in Table 2, are expressed as percentage of the cellular proliferation with respect to the controls.

[2] = system: T24 human epithelial cells of bladder cancer; assay: Antiproliferative activity, MTT, bladder cancer line T24; assay type: cell-based; conditions: Epithelial cell, 96 h, 4 days, vs DMSO 1%, read-out: Inhibition of the proliferative activity (%); for inhibition at 100 µM: 10^-4 M; for inhibition at 10 µM: 10^-5 M; for inhibition at 1 µM: 10^-6 M
Protocol: (§1) Determination of the Antiproliferative Activity of the Compounds of the Invention in Cancerous Epithelial Cells of Bladder and Prostate.
(§2) The experiment was carried out by using three human epithelial cellular lines of the prostate cancer (PNT1A; LLNCaP; PC3) and three human epithelial cellular lines of the bladder cancer (T24; 647V; 1207), the various types of cellular lines are identified on the basis of the characteristics, in particular of the aggressiveness, of the cancerous process.
(§3) The cancerous cells are sown, with an initial concentration of 20,000 cells/cm^2, in plates having 96 wells with a cellular culture medium RPMI added with foetal bovine serum 5% and L-Glutamine 1%. Solutions in dimethylsulphoxide of the tested compounds at three different concentrations (10^−6 M; 10^−5M; 10^−4M) or the carrier (DMSO 1%) are added to the culture medium. 4 days after the treatment the cellular growth was measured by the method with MTT (3-[4,5-dimethylthiazol-2-yl]-2,5-diphenyltetrazolium bromide) de-scribed by Turner in: Turner T., Chen P., Goodly L. J., Wells A. Clin. Exp. Metastasis 1996, 14, 409-418. The results, reported in Table 3, are expressed as inhibition percentage of the cellular proliferation determined by measuring the cellular proliferation in the cellular cultures treated with the tested compounds with respect to that measured in cellular cultures treated with dimethylsulphoxide 1%.

[3] = system: 647V human epithelial cells of bladder cancer; assay: Antiproliferative activity, MTT, bladder cancer line 647V; assay type: cell-based; conditions: 96 h, 4 days, vs DMSO 1%, read-out: Inhibition of the proliferative activity (%); for inhibition at 100 µM: 10^-4 M; for inhibition at 10 µM: 10^-5 M; for inhibition at 1 µM: 10^-6 M
Protocol: as §1, §2, §3

[4] = system: PNT1A human epithelial cells of prostate cancer; assay: Antiproliferative activity, MTT, prostate cancer line PNT1A; assay type: cell-based; conditions: 96 h, 4 days, vs DMSO 1%, read-out: Inhibition of the proliferative activity (%); for inhibition at 100 µM: 10^-4 M; for inhibition at 10 µM: 10^-5 M; for inhibition at 1 µM: 10^-6 M
Protocol: as §1, §2, §3

[5] = system: PC3 human epithelial cells of prostate cancer; assay: Antiproliferative activity, MTT, prostate cancer line PC3; assay type: cell-based; conditions: Epithelial cell, 96 h, 4 days, vs DMSO 1%, read-out: Inhibition of the proliferative activity (%); for inhibition at 100 µM: 10^-4 M; for inhibition at 10 µM: 10^-5 M; for inhibition at 1 µM: 10^-6 M
Protocol: as §1, §2, §3

[6] = system: human epithelial cellular lines of the prostate cancer and of the bladder cancer; assay: Antiproliferative activity in prostate and bladder cancer lines, summary in words; assay type: cell-based
Protocol: as §2, §3
The compound of Ex. 7, reported in the Table with the simplified denomination of nitrooxybutyl ester of the aspirin der. with ferulic ac. is active, at 10^−5 concentrations, in prostate tumours as shown by the results obtained on the cellular lines LNCaP and PC3.

[7] = system: 1207 human epithelial cells of bladder cancer; assay: Antiproliferative activity, MTT, bladder cancer line 1207; assay type: cell-based; conditions: Epithelial cell, 96 h, 4 days, vs DMSO 1%, read-out: Inhibition of the proliferative activity (%); for inhibition at 100 µM: 10^-4 M; for inhibition at 10 µM: 10^-5 M; for inhibition at 1 µM: 10^-6 M
Protocol: as §1, §2, §3

[8] = system: LNCaP human epithelial cells of prostate cancer; assay: Antiproliferative activity, MTT, prostate cancer line LNCaP; assay type: cell-based; conditions: 96 h, 4 days, vs DMSO 1%, read-out: Inhibition of the proliferative activity (%); for inhibition at 100 µM: 10^-4 M; for inhibition at 10 µM: 10^-5 M; for inhibition at 1 µM: 10^-6 M
Protocol: as §1, §2, §3

[9] = system: liver injury induced by concanavalin A; assay: Protection from liver injury induced by concanavalin A; assay type: in vivo; conditions: ip; plasmatic glutamic-pyruvic transaminase vs treated control group (=100); 200 mg/kg intraperitoneal; 8 hours after concanavalin A 0.3 mg/rat i.v.
Text: Determination of the capability of the compounds of the invention to protect the animals from the liver injury induced by concanavalin A.
The model in vivo used in the present example has been described in Tiegs G, Hentshel J, A Wendel. A T cell-dependent experimental liver injury in mice induced by Concanavalin A. J. Clin. Invest. 1992; 90:196-203.
The animals ([…] of Swiss stock weighing about 20 g) are divided in groups of at least No. 10 animals for group.
The animals receive concanavalin and solvent (treated control group), solvent (polyethylene glycol 400-untreated control group), concanavalin and tested compound dissolved in the solvent (treated groups).
Rats are treated intravenously with concanavalin A (0.3 mg/rat), and after 5 minutes they receive by intraperitoneal injection the tested compounds, at the doses reported in Table 1, dissolved in polyethylenglycol 400.
Eight hours after the concanavalin A injection all the animals were sacrificed and the blood collected and examined. The data, reported in Table 1, are expressed as value of the plasmatic glutamic-pyruvic transaminase percentage of the animals treated with the tested compound with respect to the animals of the treated control group.

Q: With `CC(=O)Oc1ccccc1C(=O)Oc1ccc(CO[N+](=O)[O-])cc1` [Ex. 6, 2-(acetyloxy)benzoic Acid 4-(nitrooxymethyl)phenyl ester] as the compound, how does the melting point read?
A: The melting point was 86 to 88 °C.

Q: And the activity at 10 µM ([1]; HT-29, 10 μM)?
A: Its activity at 10 µM is 0%.

Q: Which results are given for `COc1cc(/C=C/C(=O)OCCCCO[N+](=O)[O-])ccc1OC(=O)c1ccccc1OC(C)=O` [Ex. 7, trans-3-[4-[2-(acetyloxy)benzoyloxy]-3-methoxyphenyl]-2-propenoic acid 4-(nitrooxy)butyl ester]?
A: inhibition at 100 µM [2]: 55%; inhibition at 10 µM [2]: 0%; inhibition at 1 µM [2]: 2%; inhibition at 100 µM [3]: 50%; inhibition at 10 µM [3]: 0%; inhibition at 1 µM [3]: 0%; inhibition at 100 µM [4]: 72%; inhibition at 10 µM [4]: 0%; inhibition at 1 µM [4]: 0%; inhibition at 100 µM [5]: 69%; inhibition at 10 µM [5]: 30%; inhibition at 1 µM [5]: 1%; activity in prostate tumours (in words) ([6]; 10^-5 concentrations, cellular lines LNCaP and PC3): active; activity at 300 µM ([1]; HT-29, 300 μM): 50%; inhibition at 100 µM [7]: 82%; inhibition at 10 µM [7]: 24%; inhibition at 1 µM [7]: 4%; inhibition at 100 µM [8]: 81%; inhibition at 10 µM [8]: 47%; inhibition at 1 µM [8]: 20%

Q: With `CC1=C(CC(=O)OCCCCO[N+](=O)[O-])c2cc(F)ccc2/C1=C\c1ccc([S+](C)[O-])cc1` (stereo not shown) [Ex. 18] as the compound, how does the inhibition at 100 µM [2] read?
A: The inhibition at 100 µM was 93%.

Q: And the inhibition at 10 µM [2]?
A: The inhibition at 10 µM was 82%.

Q: What about the inhibition at 1 µM [2] of the same compound?
A: The inhibition at 1 µM was 0%.

Q: What about the inhibition at 100 µM [3] of the same compound?
A: The inhibition at 100 µM was 92%.

Q: What about the inhibition at 10 µM [3] of the same compound?
A: Its inhibition at 10 µM is 80%.

Q: What about the inhibition at 1 µM [3] of the same compound?
A: Its inhibition at 1 µM is 9%.

Q: What about the inhibition at 100 µM [4] of the same compound?
A: The inhibition at 100 µM was 81%.

Q: What about the inhibition at 10 µM [4] of the same compound?
A: Its inhibition at 10 µM is 38%.

Q: And the inhibition at 1 µM [4]?
A: The inhibition at 1 µM was 3%.

Q: What about the inhibition at 100 µM [5] of the same compound?
A: Its inhibition at 100 µM is 74%.

Q: And the inhibition at 10 µM [5]?
A: The inhibition at 10 µM was 68%.

Q: And the inhibition at 1 µM [5]?
A: Its inhibition at 1 µM is 5%.

Q: And the “inhibitory effect on the proliferation of all kinds of cancerous cells examined (in words)” value ([6]; 10^-5 M, all six prostate and bladder lines)?
A: The value was “strong inhibitory effect”.

Q: What about the activity at 50 µM ([1]; HT-29, 50 μM) of the same compound?
A: Its activity at 50 µM is 0%.

Q: And the inhibition at 100 µM [7]?
A: The inhibition at 100 µM was 88%.

Q: And the inhibition at 10 µM [7]?
A: Its inhibition at 10 µM is 74%.

Q: And the inhibition at 1 µM [7]?
A: The inhibition at 1 µM was 0%.

Q: What about the inhibition at 100 µM [8] of the same compound?
A: Its inhibition at 100 µM is 88%.

Q: And the inhibition at 10 µM [8]?
A: Its inhibition at 10 µM is 74%.

Q: What about the inhibition at 1 µM [8] of the same compound?
A: Its inhibition at 1 µM is 17%.

Q: And the response vs control in vivo at 200 mg/kg [9]?
A: The response vs control in vivo at 200 mg/kg was 18%.
